This is an account of results in publication PMC7838546, “A Thermostable, Modified Cathelicidin-Derived Peptide With Enhanced Membrane-Active Activity Against Salmonella enterica serovar Typhimurium” (Frontiers in Microbiology, 2021).

Data set [1] concerns L929 mouse fibroblast cells. In words: Cytotoxicity assay (MTT). The class given is cell-based. To be noted: 24 h, up to 125 μg/ml. As to the method: The toxicity of P7 peptide on L929 mouse fibroblast cells was assessed by a dye reduction assay using 3-(4,5 dimethylthiazol-2-yl)-2,5-diphenyltetrazolium bromide (MTT). Briefly, 3 × 10^4 L929 cells in RPMI 1640 [supplemented with 10% (v/v) fetal bovine serum, 0.2% (w/v) sodium bicarbonate, 2 mM L-glutamine, 100 U/ml penicillin and […] streptomycin] were seeded into each well of 96-well plates and then incubated in a humidified atmosphere with 5% CO2 at 37°C for 24 h. After the incubation period, the peptide was added to obtain final concentrations of 0.98–250 μg/ml; plates were incubated at 37°C under 5% CO2 for 24 h. RPMI 1640 medium with and without cells were used as positive and negative controls, respectively. After incubation, a final concentration of 0.5 mg/ml MTT (Sigma-Aldrich, MO, United States) was added and incubated at 37°C under 5% CO2 for 4 h. Then, the supernatants were removed from each well and 150 μl of dimethyl sulfoxide (DMSO) was added and mixed thoroughly to solubilize the formazan crystals. Subsequently, absorbance was measured at 570 nm using a microplate reader. The cell viability (%) was calculated according to the formula:
%Cellviability=ODTreated-ODBlank/ODUntreated-ODBlank×100

Data set [2] has as its system S. enterica serovar Typhimurium ATCC 13311. The class given is cell-based, Salmonella enterica serovar Typhimurium. As to the method: In order to induce bacterial resistance to P7, S. enterica serovar Typhimurium ATCC 13311 were cultured for 10 serial passages in MHB in the presence of P7 in a series of concentrations ranging from 0.98 to 250 μg/ml ([Veldhuizen et al., 2013]). In each passage, 50 μl of bacterial samples at sublethal concentrations (the highest peptide concentration displaying 80% growth compared with growth in MHB) were used to determine MIC values by a broth microdilution assay.

For data set [3] the test system is unchanged. The class given is cell-based, Salmonella enterica serovar Typhimurium. As to the method: (§1) A modified version of the National Committee for Clinical Laboratory Standards (NCCLS) broth microdilution method ([Steinberg et al., 1997]) was used to determine the minimum inhibitory concentrations (MICs) of peptide and compared to that of nisin. Fifty microliters of two-fold serial dilutions of each peptide [0.98–250 μg/ml in 0.01% (v/v) acetic acid and 0.2% (w/v) bovine serum albumin (BSA, Sigma-Aldrich, MO, United States)], were incubated with 50 μl of bacterial suspensions (approximately 10^7 CFU/ml) at 37°C for 24 h in a shaking incubator. MICs were taken as the lowest concentration of peptide at which growth was inhibited as observed by visual inspection. Bacterial cultures without peptides and uncultured broth were used as positive and negative controls, respectively. Minimal bactericidal concentrations (MBCs) were determined using a colony count assay ([Clinical Laboratory Standards Institute [CLSI], 2015]). Fifty microliters of samples from each non-turbid well in the MIC determination experiment was plated on Mueller Hinton Agar (MHA) and colonies were observed after overnight incubation at 37°C. MBCs were designated as the least concentration showing no colony growth on the plate. All of experiments were performed in triplicate.
The stability of P7 was tested by determining its antibacterial activity after exposure to different environmental conditions (high salt concentration, different ranges of pH, proteolytic enzymes and high temperatures) as previously described ([Shwaiki et al., 2020]). To test the effect of salts on the antibacterial activity of P7, 10^7 CFU/ml of S. enterica serovar Typhimurium ATCC 13311 was exposed to two-fold serially diluted concentrations (0.98–250 μg/ml) of P7 in the presence of different salts including NaCl (150 mM), KCl (4.5 mM), MgCl2 (1 mM), NH4Cl (6 μM), ZnCl2 (8 μM), FeCl3 (4 μM), and CaCl2 ([…]) ([Xu et al., 2014]). To determine pH stability, the pH of the peptide’s solution was adjusted to 3, 5, 7, 9, and 11 using 1 M NaOH or 1 M acetic acid (CH3COOH). P7 were incubated in the different pH conditions for 1 h, then transferred to inoculated MHB for antibacterial testing ([Chen et al., 2020]), There was no change of the pH following the addition of peptide. To determine the sensitivity of peptide to proteolytic enzymes, the residual activity of P7 was measured after incubation the peptide with 1 mg/ml (final concentration) of proteolytic enzymes (pepsin or trypsin) at 37°C for 1 h and heat denaturation at 80°C for 1 h. To study thermostability, peptides were pre-incubated without bacteria at various temperatures (40, 60, 80, and 100°C) for 1 h and left to cool for 30 min before testing. After these treatments, the antibacterial assays were carried out and MICs determined as described in section “Antibacterial activity assay.”
This is another data set of the same source.

The test system of data set [4] is S. enterica serovar Typhimurium H1-062 (clinical isolate). Put plainly: MIC/MBC, broth microdilution and colony count. Type of data set: cell-based, Salmonella enterica serovar Typhimurium. Conditions: H1-062, stool, resistant Amc, Amp, Ctx, C, NA, T, intermediate Cp, broth microdilution, 37°C, 24 h. As to the method: Salmonella enterica serovar Typhimurium ATCC 13311, 24 drug-resistant foodborne and eleven drug-resistant human borne S. enterica serovar Typhimurium and 4,5,12:i:- isolates (Table 1) were used as test microorganisms. They were previously isolated for molecular characterization in 2014 and kindly provided by Dr. Soraya Chaturongakul (Mahidol University, Thailand) ([Huoy et al., 2014]). All bacteria were cultured in Tryptic Soy Broth (TSB) and incubated at 37°C for 18 h. Mueller Hinton Broth (MHB) was then used to wash and rinse the bacteria. The bacterial suspensions were then diluted to obtain concentrations of 10^7 CFU/ml for inoculations.
as §1

The mark [5] stands for this setting: peptide pre-incubated at 40°C for 1 h, cooled 30 min.

Like-named read-outs stand apart in the source and are kept apart here. Ends that are not written are not given here.

For KIAKRIWKILRR-NH2 [P7], the “Cytotoxicity on L929 cells” value in data set [1] was “no cytotoxicity”. Besides, the MIC in data set [2] (serial passage 1), in data set [2] (serial passage 2), in data set [2] (serial passage 3), in data set [2] (serial passage 4), in data set [2] (serial passage 5) and in data set [2] (serial passage 6) was 3.91 µg/mL each time. In addition, the MIC in data set [2] (serial passage 7) turned out to be 3.91 µg/mL; in data set [2] (serial passage 8), 3.91 µg/mL; in data set [2] (serial passage 9), 3.91 µg/mL; in data set [2] (serial passage 10), 3.91 µg/mL; in data set [2] (through all bacterial passages (10 serial passages)), 3.91 µg/mL; in data set [3] (ATCC 13311, 1 h), 7.81 µg/mL. Also, the MIC in data set [3] (ATCC 13311, 1 h, pH 3) worked out at 7.81 µg/mL; in data set [3] (ATCC 13311, 1 h, pH 5), 7.81 µg/mL; in data set [3] (ATCC 13311, 1 h, pH 7), 7.81 µg/mL; in data set [3] (ATCC 13311, 1 h, pH 9), 7.81 µg/mL; in data set [3] (ATCC 13311, 1 h, pH 11), 7.81 µg/mL; in data set [3] (ATCC 13311, 24 h) it was 7.81 µg/mL. In addition, the minimal inhibitory concentration (MIC) in data set [3] (Control (no salt)) turned out to be 3.91 µg/mL; in data set [3] (MgCl2 (1 mM)) it was 31.25 µg/mL; in data set [3] (NaCl (150 mM)), 31.25 µg/mL; in data set [3] (after pepsin 1 mg/ml, 37°C, 1 h, then heat denaturation 80°C), 31.25 µg/mL; in data set [3] (after trypsin 1 mg/ml, 37°C, 1 h, then heat denaturation 80°C), 31.25 µg/mL; in data set [3] (setting [5]) it was 3.91 µg/mL. In addition, in data set [3] (peptide pre-incubated at 60°C for 1 h, cooled 30 min), the MIC stood at 3.91 µg/mL. In addition, the MBC in data set [3] (ATCC 13311, 1 h, pH 3) stood at 15.63 µg/mL; in data set [3] (ATCC 13311, 1 h, pH 5) it was 7.81 µg/mL; in data set [3] (ATCC 13311, 1 h, pH 7), 7.81 µg/mL; in data set [3] (ATCC 13311, 1 h, pH 9), 7.81 µg/mL; in data set [3] (ATCC 13311, 1 h, pH 11), 15.63 µg/mL; in data set [3] (Control (no salt)) it was 3.91 µg/mL. The substance also registered an MBC in data set [3] (setting [5]) of 3.91 µg/mL.

“Nisin: authorized food preservative peptide, binds lipid II and forms membrane pores (ITSISLCTPGCKTGALMGCNMKTATCHCSIHVSK; cysteine pairing not given here; also: lantibiotic nisin-A; UniProt P13068 24-57, looked up)”: the MIC in data set [4] was >1000 µg/mL.

As a reminder, the MIC is the least concentration at which growth counts as inhibited. As a reminder, the MBC is the smallest concentration meeting the test's criterion for killing.
